According to patent US20100137449A1, “SUBSTITUTED 1,3-CYCLOPENTADIONE MULTI-TARGET PROTEIN KINASE MODULATORS OF CANCER, ANGIOGENESIS AND THE INFLAMMATORY PATHWAYS ASSOCIATED THEREWITH” (METAPROTEOMICS, LLC, priority 2007, published 2010):

Columns and labels:
Assay in all cases: KinaseProfiler Assay
Ret(V804L)(h) = Ret(V804L)(h) (Homo sapiens, UniProt P07949, V804L)
FGFR1(V561M)(h) = FGFR1(V561M)(h) (Homo sapiens, UniProt P11362, V561M)
MARK1(h) = MARK1(h) (Homo sapiens, UniProt Q9P0L2)
TBK1(h) = target: T1, TBK1(h) (Homo sapiens, UniProt Q9UHD2)
T1 sequence (Q9UHD2 1-729): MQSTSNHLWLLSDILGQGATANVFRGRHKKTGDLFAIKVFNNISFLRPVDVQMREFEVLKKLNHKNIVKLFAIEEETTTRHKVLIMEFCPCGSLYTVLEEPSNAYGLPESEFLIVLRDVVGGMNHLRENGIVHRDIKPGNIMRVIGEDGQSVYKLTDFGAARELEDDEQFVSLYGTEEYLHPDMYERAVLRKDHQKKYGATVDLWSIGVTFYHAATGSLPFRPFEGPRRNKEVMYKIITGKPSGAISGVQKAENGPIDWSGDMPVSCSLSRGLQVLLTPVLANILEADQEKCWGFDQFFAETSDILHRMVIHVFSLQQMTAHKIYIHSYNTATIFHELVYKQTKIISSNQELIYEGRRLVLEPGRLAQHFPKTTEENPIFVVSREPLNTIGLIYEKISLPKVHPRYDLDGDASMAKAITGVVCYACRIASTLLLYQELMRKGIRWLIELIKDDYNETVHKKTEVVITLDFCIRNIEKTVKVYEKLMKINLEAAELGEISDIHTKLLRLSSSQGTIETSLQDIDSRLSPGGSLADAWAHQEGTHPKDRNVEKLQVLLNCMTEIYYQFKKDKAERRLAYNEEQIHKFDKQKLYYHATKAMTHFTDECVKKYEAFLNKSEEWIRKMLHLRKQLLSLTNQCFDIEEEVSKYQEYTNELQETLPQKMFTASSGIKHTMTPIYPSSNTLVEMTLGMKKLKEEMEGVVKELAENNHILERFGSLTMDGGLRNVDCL

Plk3(h) = Plk3(h) (Homo sapiens, UniProt Q9H4B4)
CaMKIδ(h) = CaMKIδ(h) (Homo sapiens, UniProt Q8IU85)
Abl(H396P)(h) = Abl(H396P)(h) (Homo sapiens, UniProt P00519, H396P)
EGFR(L861Q)(h) = EGFR(L861Q)(h) (Homo sapiens, UniProt P00533, L861Q)
MKK4(m) = target: T2, MKK4(m) (Mus musculus, UniProt P47809)
T2 sequence (P47809 1-397): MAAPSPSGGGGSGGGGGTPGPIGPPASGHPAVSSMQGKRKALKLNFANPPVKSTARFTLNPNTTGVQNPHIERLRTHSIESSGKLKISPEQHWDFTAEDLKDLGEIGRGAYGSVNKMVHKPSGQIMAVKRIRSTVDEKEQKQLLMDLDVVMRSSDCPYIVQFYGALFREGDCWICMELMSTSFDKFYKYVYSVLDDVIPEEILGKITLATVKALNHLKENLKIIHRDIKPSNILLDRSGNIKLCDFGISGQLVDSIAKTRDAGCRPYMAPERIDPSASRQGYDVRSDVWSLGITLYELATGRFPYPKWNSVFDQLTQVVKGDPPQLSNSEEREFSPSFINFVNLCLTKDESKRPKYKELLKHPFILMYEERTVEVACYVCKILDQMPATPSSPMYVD

PKCγ(h) = PKCγ(h) (Homo sapiens, UniProt P05129)
Lck(h) = Lck(h) (Homo sapiens, UniProt P06239)
SIK(h) = SIK(h) (Homo sapiens, UniProt P57059)

Chain of Plk3(h) (Q9H4B4 whole entry): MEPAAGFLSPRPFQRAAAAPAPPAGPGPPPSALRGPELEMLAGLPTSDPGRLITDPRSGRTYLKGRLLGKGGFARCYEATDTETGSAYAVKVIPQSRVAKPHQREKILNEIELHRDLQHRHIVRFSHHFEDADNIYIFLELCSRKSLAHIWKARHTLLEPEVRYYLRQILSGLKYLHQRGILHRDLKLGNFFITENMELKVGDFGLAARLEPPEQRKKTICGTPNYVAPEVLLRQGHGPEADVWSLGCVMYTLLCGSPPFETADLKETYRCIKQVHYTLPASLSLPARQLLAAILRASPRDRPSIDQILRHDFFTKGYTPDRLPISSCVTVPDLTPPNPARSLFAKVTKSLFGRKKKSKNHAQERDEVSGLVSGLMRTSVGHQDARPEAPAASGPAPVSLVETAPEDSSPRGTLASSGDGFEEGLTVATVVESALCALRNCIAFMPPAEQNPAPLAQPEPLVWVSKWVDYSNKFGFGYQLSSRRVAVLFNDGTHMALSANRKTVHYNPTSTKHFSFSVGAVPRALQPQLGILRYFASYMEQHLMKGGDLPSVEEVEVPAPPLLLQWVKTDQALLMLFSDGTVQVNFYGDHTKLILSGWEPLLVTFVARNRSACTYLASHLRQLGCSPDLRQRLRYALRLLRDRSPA
Chain of Ret(V804L)(h) (P07949 29-1114 V804L): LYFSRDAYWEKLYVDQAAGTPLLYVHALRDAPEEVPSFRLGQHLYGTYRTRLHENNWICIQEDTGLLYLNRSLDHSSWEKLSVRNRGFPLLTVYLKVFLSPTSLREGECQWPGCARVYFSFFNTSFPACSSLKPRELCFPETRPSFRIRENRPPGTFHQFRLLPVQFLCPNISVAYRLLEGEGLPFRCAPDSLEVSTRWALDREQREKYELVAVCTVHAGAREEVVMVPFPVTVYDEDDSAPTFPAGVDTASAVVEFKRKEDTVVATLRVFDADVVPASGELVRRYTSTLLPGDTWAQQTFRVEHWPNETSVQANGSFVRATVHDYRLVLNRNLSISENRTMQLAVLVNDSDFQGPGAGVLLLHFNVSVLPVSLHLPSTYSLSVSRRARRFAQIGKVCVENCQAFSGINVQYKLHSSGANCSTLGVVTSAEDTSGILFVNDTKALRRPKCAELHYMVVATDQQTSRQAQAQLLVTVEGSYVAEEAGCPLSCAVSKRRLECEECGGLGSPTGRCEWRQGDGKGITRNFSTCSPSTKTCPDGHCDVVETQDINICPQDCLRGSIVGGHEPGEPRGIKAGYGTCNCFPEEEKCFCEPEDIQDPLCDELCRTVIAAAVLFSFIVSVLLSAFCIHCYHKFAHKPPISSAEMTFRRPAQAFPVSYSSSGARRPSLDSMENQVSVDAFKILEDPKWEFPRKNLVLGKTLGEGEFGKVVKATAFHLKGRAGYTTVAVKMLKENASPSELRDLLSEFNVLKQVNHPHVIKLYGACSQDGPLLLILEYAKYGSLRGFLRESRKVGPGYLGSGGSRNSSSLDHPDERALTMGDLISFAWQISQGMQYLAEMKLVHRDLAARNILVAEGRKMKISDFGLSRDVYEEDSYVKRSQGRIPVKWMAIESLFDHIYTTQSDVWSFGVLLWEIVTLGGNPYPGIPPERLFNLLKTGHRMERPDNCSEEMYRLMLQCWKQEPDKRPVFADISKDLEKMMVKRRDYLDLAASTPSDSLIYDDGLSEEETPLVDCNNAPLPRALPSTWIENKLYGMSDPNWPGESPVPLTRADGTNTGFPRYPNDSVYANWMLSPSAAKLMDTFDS
Chain of Lck(h) (P06239 whole entry): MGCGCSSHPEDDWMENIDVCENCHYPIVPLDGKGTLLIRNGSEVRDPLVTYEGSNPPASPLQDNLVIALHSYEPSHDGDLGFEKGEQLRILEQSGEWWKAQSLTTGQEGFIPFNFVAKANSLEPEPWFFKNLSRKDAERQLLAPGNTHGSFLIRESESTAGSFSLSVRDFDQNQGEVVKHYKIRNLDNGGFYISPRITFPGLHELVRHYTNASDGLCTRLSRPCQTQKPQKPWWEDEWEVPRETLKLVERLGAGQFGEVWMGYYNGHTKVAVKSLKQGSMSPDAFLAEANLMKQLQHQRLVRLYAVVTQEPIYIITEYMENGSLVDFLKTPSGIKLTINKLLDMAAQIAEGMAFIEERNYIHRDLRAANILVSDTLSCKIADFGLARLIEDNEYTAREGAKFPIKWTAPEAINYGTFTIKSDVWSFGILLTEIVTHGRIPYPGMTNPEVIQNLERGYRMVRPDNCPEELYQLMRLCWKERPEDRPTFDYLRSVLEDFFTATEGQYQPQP
Chain of EGFR(L861Q)(h) (P00533 25-1210 L861Q): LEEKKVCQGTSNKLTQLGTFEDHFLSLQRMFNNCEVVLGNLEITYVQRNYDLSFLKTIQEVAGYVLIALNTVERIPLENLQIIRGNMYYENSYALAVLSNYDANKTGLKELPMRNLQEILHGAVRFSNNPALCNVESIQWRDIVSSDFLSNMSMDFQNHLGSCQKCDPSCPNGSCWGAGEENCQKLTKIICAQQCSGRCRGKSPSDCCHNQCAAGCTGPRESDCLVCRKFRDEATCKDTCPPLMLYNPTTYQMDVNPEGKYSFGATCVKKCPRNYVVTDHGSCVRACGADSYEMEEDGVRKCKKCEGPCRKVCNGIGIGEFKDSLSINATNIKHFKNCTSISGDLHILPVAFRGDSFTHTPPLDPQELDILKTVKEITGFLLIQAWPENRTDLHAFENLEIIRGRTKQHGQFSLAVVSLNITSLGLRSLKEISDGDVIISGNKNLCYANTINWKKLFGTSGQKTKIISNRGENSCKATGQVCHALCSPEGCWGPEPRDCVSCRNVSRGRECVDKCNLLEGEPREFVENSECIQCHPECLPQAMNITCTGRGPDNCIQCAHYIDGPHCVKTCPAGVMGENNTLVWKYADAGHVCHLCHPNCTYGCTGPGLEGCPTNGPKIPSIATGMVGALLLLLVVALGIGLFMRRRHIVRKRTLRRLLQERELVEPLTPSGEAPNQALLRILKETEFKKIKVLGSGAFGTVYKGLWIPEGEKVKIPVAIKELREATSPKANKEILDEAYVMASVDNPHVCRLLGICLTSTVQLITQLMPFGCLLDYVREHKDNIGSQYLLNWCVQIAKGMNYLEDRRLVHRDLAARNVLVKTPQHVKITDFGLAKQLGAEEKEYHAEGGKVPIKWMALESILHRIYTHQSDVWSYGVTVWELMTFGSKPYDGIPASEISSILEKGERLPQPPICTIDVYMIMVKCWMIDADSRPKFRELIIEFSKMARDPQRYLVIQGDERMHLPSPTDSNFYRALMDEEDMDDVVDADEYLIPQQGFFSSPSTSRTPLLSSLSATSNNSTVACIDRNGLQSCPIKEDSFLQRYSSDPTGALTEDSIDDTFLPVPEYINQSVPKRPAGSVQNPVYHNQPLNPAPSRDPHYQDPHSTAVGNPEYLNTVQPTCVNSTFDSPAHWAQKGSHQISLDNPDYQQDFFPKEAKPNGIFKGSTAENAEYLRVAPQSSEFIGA
Chain of FGFR1(V561M)(h) (P11362 22-822 V561M): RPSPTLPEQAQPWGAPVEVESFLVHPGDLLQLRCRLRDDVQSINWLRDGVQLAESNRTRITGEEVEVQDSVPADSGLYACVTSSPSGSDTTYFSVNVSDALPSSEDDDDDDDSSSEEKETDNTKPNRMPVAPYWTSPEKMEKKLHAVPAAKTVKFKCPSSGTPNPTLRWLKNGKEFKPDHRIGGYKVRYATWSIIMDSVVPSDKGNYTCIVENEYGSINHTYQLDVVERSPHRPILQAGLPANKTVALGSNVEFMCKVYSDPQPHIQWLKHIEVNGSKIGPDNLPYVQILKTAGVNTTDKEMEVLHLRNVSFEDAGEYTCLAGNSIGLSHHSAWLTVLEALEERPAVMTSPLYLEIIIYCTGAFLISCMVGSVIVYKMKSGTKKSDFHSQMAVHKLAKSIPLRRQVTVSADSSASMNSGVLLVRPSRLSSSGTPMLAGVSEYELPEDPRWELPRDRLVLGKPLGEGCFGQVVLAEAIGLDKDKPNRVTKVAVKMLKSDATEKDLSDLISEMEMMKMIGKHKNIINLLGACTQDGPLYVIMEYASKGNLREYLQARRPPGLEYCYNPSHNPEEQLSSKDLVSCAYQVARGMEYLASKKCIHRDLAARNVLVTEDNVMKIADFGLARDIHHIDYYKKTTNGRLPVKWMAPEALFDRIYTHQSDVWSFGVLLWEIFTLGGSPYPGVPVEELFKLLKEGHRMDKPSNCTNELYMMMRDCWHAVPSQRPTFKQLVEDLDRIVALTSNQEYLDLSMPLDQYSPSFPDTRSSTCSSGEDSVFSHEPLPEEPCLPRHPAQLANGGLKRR

SMILES: CC(C)CCC(=O)[C@]1(O)C(O)=C(C(=O)C(C)C)C(=O)[C@H]1CCC(C)C [TH2, tetrahydroiso-cohumulone]
- kinase inhibition (Ret(V804L)(h); 1 μg/ml): 110% of control
- kinase inhibition (Ret(V804L)(h); 5 μg/ml): 103% of control
- kinase inhibition (Ret(V804L)(h); 25 μg/ml): 91% of control
- kinase inhibition (Ret(V804L)(h); 50 μg/ml): 81% of control
- kinase inhibition (Ret(V804L)(h); 100 μg/ml): 60% of control
- kinase inhibition (FGFR1(V561M)(h); 1 μg/ml): 105% of control
- kinase inhibition (FGFR1(V561M)(h); 5 μg/ml): 107% of control
- kinase inhibition (FGFR1(V561M)(h); 25 μg/ml): 95% of control
- kinase inhibition (FGFR1(V561M)(h); 50 μg/ml): 79% of control
- kinase inhibition (FGFR1(V561M)(h); 100 μg/ml): 75% of control
- kinase inhibition (MARK1(h); 1 μg/ml): 109% of control
- kinase inhibition (MARK1(h); 5 μg/ml): 110% of control
- kinase inhibition (MARK1(h); 25 μg/ml): 97% of control
- kinase inhibition (MARK1(h); 50 μg/ml): 90% of control
- kinase inhibition (MARK1(h); 100 μg/ml): 63% of control
- kinase inhibition (TBK1(h); 1 μg/ml): 108% of control
- kinase inhibition (TBK1(h); 5 μg/ml): 107% of control
- kinase inhibition (TBK1(h); 25 μg/ml): 97% of control
- kinase inhibition (TBK1(h); 50 μg/ml): 86% of control
- kinase inhibition (TBK1(h); 100 μg/ml): 70% of control
- kinase inhibition (Plk3(h); 1 μg/ml): 120% of control
- kinase inhibition (Plk3(h); 5 μg/ml): 105% of control
- kinase inhibition (Plk3(h); 25 μg/ml): 104% of control
- kinase inhibition (Plk3(h); 50 μg/ml): 99% of control
- kinase inhibition (Plk3(h); 100 μg/ml): 86% of control
- kinase inhibition (CaMKIδ(h); 1 μg/ml): 95% of control
- kinase inhibition (CaMKIδ(h); 5 μg/ml): 88% of control
- kinase inhibition (CaMKIδ(h); 25 μg/ml): 101% of control
- kinase inhibition (CaMKIδ(h); 50 μg/ml): 105% of control
- kinase inhibition (CaMKIδ(h); 100 μg/ml): 98% of control
- kinase inhibition (Abl(H396P)(h); 1 μg/ml): 96% of control
- kinase inhibition (Abl(H396P)(h); 5 μg/ml): 103% of control
- kinase inhibition (Abl(H396P)(h); 25 μg/ml): 83% of control
- kinase inhibition (Abl(H396P)(h); 50 μg/ml): 65% of control
- kinase inhibition (Abl(H396P)(h); 100 μg/ml): 54% of control
- kinase inhibition (EGFR(L861Q)(h); 1 μg/ml): 98% of control
- kinase inhibition (EGFR(L861Q)(h); 5 μg/ml): 91% of control
- kinase inhibition (EGFR(L861Q)(h); 25 μg/ml): 94% of control
- kinase inhibition (EGFR(L861Q)(h); 50 μg/ml): 99% of control
- kinase inhibition (EGFR(L861Q)(h); 100 μg/ml): 93% of control
- kinase inhibition (MKK4(m); 1 μg/ml): 120% of control
- kinase inhibition (MKK4(m); 5 μg/ml): 127% of control
- kinase inhibition (MKK4(m); 25 μg/ml): 91% of control
- kinase inhibition (MKK4(m); 50 μg/ml): 95% of control
- kinase inhibition (MKK4(m); 100 μg/ml): 85% of control
- kinase inhibition (PKCγ(h); 1 μg/ml): 102% of control
- kinase inhibition (PKCγ(h); 5 μg/ml): 107% of control
- kinase inhibition (PKCγ(h); 25 μg/ml): 101% of control
- kinase inhibition (PKCγ(h); 50 μg/ml): 91% of control
- kinase inhibition (PKCγ(h); 100 μg/ml): 99% of control
- kinase inhibition (Lck(h); 1 μg/ml): 106% of control
- kinase inhibition (Lck(h); 5 μg/ml): 111% of control
- kinase inhibition (Lck(h); 25 μg/ml): 86% of control
- kinase inhibition (Lck(h); 50 μg/ml): 83% of control
- kinase inhibition (Lck(h); 100 μg/ml): 78% of control
- kinase inhibition (SIK(h); 1 μg/ml): 102% of control
- kinase inhibition (SIK(h); 5 μg/ml): 99% of control
- kinase inhibition (SIK(h); 25 μg/ml): 104% of control
- kinase inhibition (SIK(h); 50 μg/ml): 89% of control
- kinase inhibition (SIK(h); 100 μg/ml): 62% of control
